According to patent US8530493B2, “Indolopyridines as Eg5 kinesin modulators” (4SC AG, priority 2006, dated 2013):

Test system: RKO p21 uninduced (proliferating) colon adenocarcinoma cells
Assay: Alamar Blue cell viability assay, RKO p21 uninduced (proliferating)
Format: cell-based
Details: Homo sapiens, Table B3, anti-proliferative/cytotoxic activity, 72 hours, read-out: −log EC50 RKO p21 uninduced (proliferating) (converted)
How it was run: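 Viability read by Alamar Blue fluorescence (ex 544, em 590 nm), normalised to untreated wells, after 72 h, 37° C, 5% CO2 compound exposure in triplicate. Cells were uninduced (no Ponasterone A), proliferating RKO colon carcinoma p27 or p21 subclones in DMEM with 10% FCS; values are −log EC50 (mol/l).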

Row | SMILES | EC50 [nM]
1 | C[C@@]12Cc3c([nH]c4ccc(Br)cc34)[C@@H](c3cccc(O)c3)N1C(=O)N(CCCN1CCCCC1)C2=O (racemic) [Example 373, (3aSR,10RS)-6-Bromo-10-(3-hydroxy-phenyl)-3a-methyl-2-(3-piperidin-1-yl-propyl)-3a,4,9,10-tetrahydro-2,9,10a-triaza-cyclopenta[b]fluorene-1,3-dione] | ≤ 39.8
2 | CN1CCN(CCCN2C(=O)N3[C@H](c4cccc(O)c4)c4[nH]c5ccc(Br)cc5c4C[C@@]3(C)C2=O)CC1 (racemic) [Example 375, (3aSR,10RS)-6-Bromo-10-(3-hydroxy-phenyl)-3a-methyl-2-[3-(4-methyl-piperazin-1-yl)-propyl]-3a,4,9,10-tetrahydro-2,9,10a-triaza-cyclopenta[b]fluorene-1,3-dione] | ≤ 39.8
3 | C[C@@]12Cc3c([nH]c4ccc(Br)cc34)[C@@H](c3cccc(O)c3)N1C(=O)N(CCNCC1CC1)C2=O (racemic) [Example 376, (3aSR,10RS)-6-Bromo-2-[2-(cyclopropylmethyl-amino)-ethyl]-10-(3-hydroxy-phenyl)-3a-methyl-3a,4,9,10-tetrahydro-2,9,10a-triaza-cyclopenta[b]fluorene-1,3-dione] | ≤ 39.8
4 | COCCNCCN1C(=O)N2[C@H](c3cccc(O)c3)c3[nH]c4ccc(Br)cc4c3C[C@@]2(C)C1=O (racemic) [Example 377, (3aSR,10RS)-6-Bromo-10-(3-hydroxy-phenyl)-2-[2-(2-methoxy-ethylamino)-ethyl]-3a-methyl-3a,4,9,10-tetrahydro-2,9,10a-triaza-cyclopenta[b]fluorene-1,3-dione] | ≤ 39.8
5 | CC(C)(C)NCCN1C(=O)N2[C@H](c3cccc(O)c3)c3[nH]c4ccc(Br)cc4c3C[C@@]2(C)C1=O (racemic) [Example 378, (3aSR,10RS)-6-Bromo-2-(2-tert-butylamino-ethyl)-10-(3-hydroxy-phenyl)-3a-methyl-3a,4,9,10-tetrahydro-2,9,10a-triaza-cyclopenta[b]fluorene-1,3-dione] | ≤ 39.8
6 | CCN(CCO)CCN1C(=O)N2[C@H](c3cccc(O)c3)c3[nH]c4ccc(Br)cc4c3C[C@@]2(C)C1=O (racemic) [Example 379, (3aSR,10RS)-6-Bromo-2-{2-[ethyl-(2-hydroxy-ethyl)-amino]-ethyl}-10-(3-hydroxy-phenyl)-3a-methyl-3a,4,9,10-tetrahydro-2,9,10a-triaza-cyclopenta[b]fluorene-1,3-dione] | ≤ 39.8
7 | CCN(CCOC)CCN1C(=O)N2[C@H](c3cccc(O)c3)c3[nH]c4ccc(Br)cc4c3C[C@@]2(C)C1=O (racemic) [Example 380, (3aSR,10RS)-6-Bromo-2-{2-[ethyl-(2-methoxy-ethyl)-amino]-ethyl}-10-(3-hydroxy-phenyl)-3a-methyl-3a,4,9,10-tetrahydro-2,9,10a-triaza-cyclopenta[b]fluorene-1,3-dione] | 39.8 to 251
8 | C=CCN(C)CCN1C(=O)N2[C@H](c3cccc(O)c3)c3[nH]c4ccc(Br)cc4c3C[C@@]2(C)C1=O (racemic) [Example 381, (3aSR,10RS)-2-[2-(Allyl-methyl-amino)-ethyl]-6-bromo-10-(3-hydroxy-phenyl)-3a-methyl-3a,4,9,10-tetrahydro-2,9,10a-triaza-cyclopenta[b]fluorene-1,3-dione] | 39.8 to 251
9 | C#CCN(C)CCN1C(=O)N2[C@H](c3cccc(O)c3)c3[nH]c4ccc(Br)cc4c3C[C@@]2(C)C1=O (racemic) [Example 382, (3aSR,10RS)-6-Bromo-10-(3-hydroxy-phenyl)-3a-methyl-2-[2-(methyl-prop-2-ynyl-amino)-ethyl]-3a,4,9,10-tetrahydro-2,9,10a-triaza-cyclopenta[b]fluorene-1,3-dione] | 39.8 to 251
10 | C=CCNCCN1C(=O)N2[C@H](c3cccc(O)c3)c3[nH]c4ccc(Br)cc4c3C[C@@]2(C)C1=O (racemic) [Example 383, (3aSR,10RS)-2-(2-Allylamino-ethyl)-6-bromo-10-(3-hydroxy-phenyl)-3a-methyl-3a,4,9,10-tetrahydro-2,9,10a-triaza-cyclopenta[b]fluorene-1,3-dione] | ≤ 39.8
11 | CN(CCO)CCN1C(=O)N2[C@H](c3cccc(O)c3)c3[nH]c4ccc(Br)cc4c3C[C@@]2(C)C1=O (racemic) [Example 384, (3aSR,10RS)-6-Bromo-2-{2-[(2-hydroxy-ethyl)-methyl-amino]-ethyl}-10-(3-hydroxy-phenyl)-3a-methyl-3a,4,9,10-tetrahydro-2,9,10a-triaza-cyclopenta[b]fluorene-1,3-dione] | ≤ 39.8
12 | CCN(CC)CCN1C(=O)N2[C@H](c3cccc(O)c3)c3[nH]c4ccc(Br)cc4c3C[C@@]2(C)C1=O (racemic) [Example 385, (3aSR,10RS)-6-Bromo-2-(2-diethylamino-ethyl)-10-(3-hydroxy-phenyl)-3a-methyl-3a,4,9,10-tetrahydro-2,9,10a-triaza-cyclopenta[b]fluorene-1,3-dione] | ≤ 39.8
13 | CN1CCN(CCN2C(=O)N3[C@H](c4cccc(O)c4)c4[nH]c5ccc(Br)cc5c4C[C@@]3(C)C2=O)CC1 (racemic) [Example 386, (3aSR,10RS)-6-Bromo-10-(3-hydroxy-phenyl)-3a-methyl-2-[2-(4-methyl-piperazin-1-yl)-ethyl]-3a,4,9,10-tetrahydro-2,9,10a-triaza-cyclopenta[b]fluorene-1,3-dione] | ≤ 39.8
14 | CC(=O)N1CCN(CCN2C(=O)N3[C@H](c4cccc(O)c4)c4[nH]c5ccc(Br)cc5c4C[C@@]3(C)C2=O)CC1 (racemic) [Example 387, (3aSR,10RS)-2-[2-(4-Acetyl-piperazin-1-yl)-ethyl]-6-bromo-10-(3-hydroxy-phenyl)-3a-methyl-3a,4,9,10-tetrahydro-2,9,10a-triaza-cyclopenta[b]fluorene-1,3-dione] | ≤ 39.8
15 | C[C@@]12Cc3c([nH]c4ccc(Br)cc34)[C@@H](c3cccc(O)c3)N1C(=O)N(CCN1CCOCC1)C2=O (racemic) [Example 388, (3aSR,10RS)-6-Bromo-10-(3-hydroxy-phenyl)-3a-methyl-2-(2-morpholin-4-yl-ethyl)-3a,4,9,10-tetrahydro-2,9,10a-triaza-cyclopenta[b]fluorene-1,3-dione] | 39.8 to 251
16 | C[C@@]12Cc3c([nH]c4ccc(Br)cc34)[C@@H](c3cccc(O)c3)N1C(=O)N(CCN1CCCC1)C2=O (racemic) [Example 389, (3aSR,10RS)-6-Bromo-10-(3-hydroxy-phenyl)-3a-methyl-2-(2-pyrrolidin-1-yl-ethyl)-3a,4,9,10-tetrahydro-2,9,10a-triaza-cyclopenta[b]fluorene-1,3-dione] | ≤ 39.8
17 | C[C@@]12Cc3c([nH]c4ccc(Br)cc34)[C@@H](c3cccc(O)c3)N1C(=O)N(CCN1CCCCC1)C2=O (racemic) [Example 390, (3aSR,10RS)-6-Bromo-10-(3-hydroxy-phenyl)-3a-methyl-2-(2-piperidin-1-yl-ethyl)-3a,4,9,10-tetrahydro-2,9,10a-triaza-cyclopenta[b]fluorene-1,3-dione] | ≤ 39.8
18 | CC(C)CNCCN1C(=O)N2[C@H](c3cccc(O)c3)c3[nH]c4ccc(Br)cc4c3C[C@@]2(C)C1=O (racemic) [Example 391, (3aSR,10RS)-6-Bromo-10-(3-hydroxy-phenyl)-2-(2-isobutylamino-ethyl)-3a-methyl-3a,4,9,10-tetrahydro-2,9,10a-triaza-cyclopenta[b]fluorene-1,3-dione] | ≤ 39.8
19 | CC(C)NCCCN1C(=O)N2[C@H](c3cccc(O)c3)c3[nH]c4ccc(Cl)cc4c3C[C@@]2(C)C1=O (racemic) [Example 392, (3aSR,10RS)-6-Chloro-10-(3-hydroxy-phenyl)-2-(3-isopropylamino-propyl)-3a-methyl-3a,4,9,10-tetrahydro-2,9,10a-triaza-cyclopenta[b]fluorene-1,3-dione] | ≤ 39.8
20 | CCNCCN1C(=O)N2[C@H](c3cccc(O)c3)c3[nH]c4ccc(Br)cc4c3C[C@@]2(C)C1=O (racemic) [Example 393, (3aSR,10RS)-6-Bromo-2-(2-ethylamino-ethyl)-10-(3-hydroxy-phenyl)-3a-methyl-3a,4,9,10-tetrahydro-2,9,10a-triaza-cyclopenta[b]fluorene-1,3-dione] | ≤ 39.8
21 | CNCCN1C(=O)N2[C@H](c3cccc(O)c3)c3[nH]c4ccc(Br)cc4c3C[C@@]2(C)C1=O (racemic) [Example 394, (3aSR,10RS)-6-Bromo-10-(3-hydroxy-phenyl)-3a-methyl-2-(2-methylamino-ethyl)-3a,4,9,10-tetrahydro-2,9,10a-triaza-cyclopenta[b]fluorene-1,3-dione] | ≤ 39.8
22 | C[C@@]12Cc3c([nH]c4ccc(Br)cc34)[C@@H](c3cccc(O)c3)N1C(=O)N(CCN1CC=CCC1)C2=O (racemic) [Example 395, (3aSR,10RS)-6-Bromo-2-[2-(3,6-dihydro-2H-pyridin-1-yl)-ethyl]-10-(3-hydroxy-phenyl)-3a-methyl-3a,4,9,10-tetrahydro-2,9,10a-triaza-cyclopenta[b]fluorene-1,3-dione] | 39.8 to 251
23 | C[C@@]12Cc3c([nH]c4ccc(Br)cc34)[C@@H](c3cccc(O)c3)N1C(=O)N(CCN1CCCCCC1)C2=O (racemic) [Example 396, (3aSR,10RS)-2-(2-Azepan-1-yl-ethyl)-6-bromo-10-(3-hydroxy-phenyl)-3a-methyl-3a,4,9,10-tetrahydro-2,9,10a-triaza-cyclopenta[b]fluorene-1,3-dione] | 39.8 to 251
24 | CCN(CCCN1C(=O)N2[C@H](c3cccc(O)c3)c3[nH]c4ccc(Cl)cc4c3C[C@@]2(C)C1=O)CCOC (racemic) [Example 397, (3aSR,10RS)-6-Chloro-2-{3-[ethyl-(2-methoxy-ethyl)-amino]-propyl}-10-(3-hydroxy-phenyl)-3a-methyl-3a,4,9,10-tetrahydro-2,9,10a-triaza-cyclopenta[b]fluorene-1,3-dione] | ≤ 39.8
